Laboratory results taken from ChEMBL document CHEMBL1135900, “Toward selective ERbeta agonists for central nervous system disorders: synthesis and characterization of aryl benzthiophenes” (J Med Chem, 2002).

Assays:
[1] = target: T1, Estrogen receptor beta (Homo sapiens, UniProt Q92731)
Description: Activation of estrogen response element in HeLa cells stably transfected with human Estrogen receptor beta.

[2] = target: T2, Estrogen receptor (Homo sapiens, UniProt P03372)
T2 sequence (P03372 whole entry): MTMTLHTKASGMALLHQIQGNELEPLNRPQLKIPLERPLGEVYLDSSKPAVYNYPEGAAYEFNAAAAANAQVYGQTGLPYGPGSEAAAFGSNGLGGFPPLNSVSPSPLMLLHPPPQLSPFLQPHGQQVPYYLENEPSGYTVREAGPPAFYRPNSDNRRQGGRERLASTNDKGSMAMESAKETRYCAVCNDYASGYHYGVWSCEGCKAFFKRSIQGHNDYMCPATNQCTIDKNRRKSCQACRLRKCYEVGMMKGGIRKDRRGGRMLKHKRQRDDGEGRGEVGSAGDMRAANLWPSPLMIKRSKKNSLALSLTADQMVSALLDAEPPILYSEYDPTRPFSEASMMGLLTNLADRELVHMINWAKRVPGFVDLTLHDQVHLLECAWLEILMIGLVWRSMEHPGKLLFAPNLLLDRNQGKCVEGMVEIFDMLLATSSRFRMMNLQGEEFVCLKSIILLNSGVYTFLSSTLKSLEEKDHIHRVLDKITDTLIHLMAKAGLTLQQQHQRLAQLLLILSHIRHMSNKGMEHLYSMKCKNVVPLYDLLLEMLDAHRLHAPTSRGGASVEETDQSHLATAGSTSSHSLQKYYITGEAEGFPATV
Description: Activation of estrogen response element in HeLa cells stably transfected with human Estrogen receptor alpha.

[3] = target: T1, Estrogen receptor beta; remark: listed apart in the source
Description: Inhibition of [3H]17-beta-estradiol binding to human recombinant Estrogen receptor beta.

[4] = target: T1, Estrogen receptor beta; assay: Agonist activity in transcriptional activation assay in SH-SY5Y neuroblastoma cells expressing Estrogen receptor beta; type: functional, cell-based
[5] = target: T2, Estrogen receptor; remark: listed apart in the source
Description: Inhibition of [3H]17-beta-estradiol binding to human recombinant Estrogen receptor alpha.

T1 sequence (Q92731 whole entry): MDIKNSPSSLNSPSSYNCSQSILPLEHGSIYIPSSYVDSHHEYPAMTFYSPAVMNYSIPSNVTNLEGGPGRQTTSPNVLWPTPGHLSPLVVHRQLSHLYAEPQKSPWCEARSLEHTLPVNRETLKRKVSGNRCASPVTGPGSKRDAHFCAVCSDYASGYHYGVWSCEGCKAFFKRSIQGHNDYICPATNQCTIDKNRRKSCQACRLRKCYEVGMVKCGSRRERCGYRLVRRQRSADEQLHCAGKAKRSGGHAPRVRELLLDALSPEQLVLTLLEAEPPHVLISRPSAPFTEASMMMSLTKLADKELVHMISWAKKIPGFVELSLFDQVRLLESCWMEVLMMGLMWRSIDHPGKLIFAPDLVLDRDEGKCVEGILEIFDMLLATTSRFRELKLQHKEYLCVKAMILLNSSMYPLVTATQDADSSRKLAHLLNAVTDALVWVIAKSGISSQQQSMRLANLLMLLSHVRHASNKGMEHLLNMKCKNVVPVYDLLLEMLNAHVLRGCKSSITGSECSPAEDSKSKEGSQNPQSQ

Structure (SMILES): Cc1cc(O)ccc1-c1cc2ccc(O)cc2s1
- EC50 [1]: 15 nM
- EC50 [2]: 48 nM
- EC50 [3]: 129 nM
- EC50 [4]: 16 nM
- EC50 [5]: 341 nM

Structure (SMILES): Oc1cccc(-c2cc3ccc(O)cc3s2)c1
- EC50 [1]: 245 nM
- EC50 [2]: 269 nM
- EC50 [3]: 740 nM
- EC50 [5]: 2210 nM

Structure (SMILES): Oc1ccc2cc(-c3ccccc3)sc2c1
- EC50 [1]: 166 nM
- EC50 [2]: 209 nM
- EC50 [3]: 4310 nM
- EC50 [4]: 69 nM
- EC50 [5]: 3710 nM

Structure (SMILES): CCCc1cc(-c2cc3ccc(O)cc3s2)ccc1O
- EC50 [1]: 186 nM
- EC50 [2]: 162 nM
- EC50 [3]: 3940 nM
- EC50 [4]: 257 nM
- EC50 [5]: > 10000 nM

Structure (SMILES): Cc1cc(-c2cc3ccc(O)cc3s2)ccc1O
- EC50 [1]: 302 nM
- EC50 [2]: 148 nM
- EC50 [3]: 1830 nM
- EC50 [5]: 3650 nM

Structure (SMILES): CC(=O)c1cc(-c2cc3ccc(O)cc3s2)ccc1O
- EC50 [1]: > 1000 nM
- EC50 [2]: > 1000 nM
- EC50 [3]: > 10000 nM
- EC50 [5]: > 10000 nM

Structure (SMILES): Oc1ccc2cc(-c3ccc(O)c(F)c3)sc2c1
- EC50 [1]: 32 nM
- EC50 [2]: 138 nM
- EC50 [3]: 115 nM
- EC50 [4]: 13 nM
- EC50 [5]: 1030 nM

Structure (SMILES): Cc1ccc(-c2cc3ccc(O)cc3s2)cc1
- EC50 [1]: 174 nM
- EC50 [2]: 178 nM
- EC50 [3]: > 10000 nM
- EC50 [4]: 120 nM
- EC50 [5]: > 10000 nM

Structure (SMILES): CCc1cc(-c2cc3ccc(O)cc3s2)ccc1O
- EC50 [1]: 257 nM
- EC50 [2]: 191 nM
- EC50 [3]: 4710 nM
- EC50 [5]: 7440 nM

Structure (SMILES): Oc1cc(O)c2cc(-c3ccc(O)c(F)c3)sc2c1
- EC50 [1]: > 1000 nM
- EC50 [2]: 1000 nM
- EC50 [3]: 7470 nM
- EC50 [5]: > 10000 nM

Structure (SMILES): Oc1ccc(-c2cc3ccc(O)cc3s2)cc1 [RALOXIFENE CORE]
- EC50 [1]: 17 nM
- EC50 [3]: 114 nM
- EC50 [4]: 10 nM

Structure (SMILES): Cc1cc(-c2cc3c(O)cc(O)cc3s2)ccc1O
- EC50 [1]: > 1000 nM
- EC50 [2]: > 1000 nM
- EC50 [3]: > 10000 nM
- EC50 [5]: > 10000 nM

Structure (SMILES): Oc1ccc2cc(-c3ccc(O)c(O)c3)sc2c1
- EC50 [1]: 525 nM
- EC50 [2]: 363 nM
- EC50 [3]: 249 nM
- EC50 [5]: 4980 nM
